This note sets out measurements from US20240366612A1, “COMPOUNDS AND METHODS FOR MODULATING NUCLEIC ACID SPLICING” (REMIX THERAPEUTICS INC., priority 2021, published 2024).

A value given as a limit tells only on which side of the number the result lay.

What all share (type): cell-based
For test [1], the system named is HTT mRNA. Briefly: Splicing RT-qPCR assay, HTT canonical (CJ) and alternative (AJ) junction mRNA. The following applies: Homo sapiens, A673 or K562 cells, 24 hours treatment; for IC50: decrease in CJ mRNA; for AC50: increase in AJ mRNA. A digest of the protocol:
(§1)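 Compound-treated A673 or K562 cells (11-point 3-fold dilution, top dose 10 uM final, DMSO ≤0.25%) were incubated for 24 h at 37° C. Lysates underwent one-step RT-qPCR for canonical and alternative-exon junction isoforms. Normalization used PPIA for A673 and GAPDH or GUSB for K562.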

The test system of test [2] is Target C CJ mRNA. Briefly: Gene panel canonical junction qPCR assay, Target C. To be noted: Homo sapiens, larger gene panel, read-out: Target C IC50 (decrease in CJ mRNA levels). In outline:
(§2)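 A673 or K562 cells treated 24 h with 11-point 3-fold dilutions (top 10 µM, ≤0.25% DMSO) at 37 °C. Canonical exon-junction mRNA measured by probe-based RT-qPCR, normalized to GAPDH, GUSB or PPIA and DMSO (2^−ΔΔCt), converted to percent response over a fixed ΔCt window; IC50 from 4-parameter fit.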

Test [3] concerns HTT CJ mRNA. Briefly: Gene panel canonical junction qPCR assay, HTT. The following applies: Homo sapiens, larger gene panel, read-out: HTT IC50 (decrease in CJ mRNA levels). In outline: as §2
Test [4] concerns MYB mRNA. Kind of test: Splicing RT-qPCR assay, MYB canonical (CJ) and alternative (AJ) junction mRNA. The following applies: Homo sapiens, A673 or K562 cells, 24 hours treatment; for IC50: decrease in CJ mRNA; for AC50: increase in AJ mRNA. In outline: as §1
For test [5], the system named is SMN2 CJ mRNA. Briefly: Gene panel canonical junction qPCR assay, SMN2. The following applies: Homo sapiens, larger gene panel, read-out: SMN2 IC50 (decrease in CJ mRNA levels). A digest of the protocol:
as §2

In the case of `Cc1cn2cc(N3CCc4cc(C5CCNCC5)sc4C3=O)cc(F)c2n1` [Compound 800, 6-[8-fluoro-2-methylimidazo[1,2-a]pyridin-6-yl]-2-(piperidin-4-yl)-4H,5H-thieno[2,3-c]pyridin-7-one], the IC50 in test [1], in test [2], in test [3], in test [4] and in test [5] was over 10000 nM throughout. Also, the half-maximal activity concentration (AC50) in test [1] and in test [4] was over 10000 nM in each case.

Turning to `Cc1cn2cc(-n3ccc4cc(C5CCNCC5)sc4c3=O)cc(F)c2n1` [Compound 801, 6-[8-fluoro-2-methylimidazo[1,2-a]pyridin-6-yl]-2-(piperidin-4-yl)thieno[2,3-c]pyridin-7-one], the IC50 in test [1], in test [2], in test [3], in test [4] and in test [5] was over 10000 nM each time. Moreover, the AC50 in test [1] and in test [4] was over 10000 nM in each case.

As for `Cc1cc(-c2cc3cnn(C4CCNCC4)c(=O)c3s2)cc2cn(C)nc12` [Compound 802, 2-(2,7-dimethyl-2H-indazol-5-yl)-6-(piperidin-4-yl)thieno[2,3-d]pyridazin-7(6H)-one], the IC50 in test [1] is 100 to 1000 nM; in test [2], 100 to 1000 nM; in test [3], 100 to 1000 nM; in test [4], 100 to 1000 nM; in test [5] it was under 100 nM. The AC50 in test [1] and in test [4] was 100 to 1000 nM throughout.

As for `Cc1cn2cc(-c3cc4ccn(C5CCNCC5)c(=O)c4s3)cc(F)c2n1` [Compound 804, 2-(8-fluoro-2-methylimidazo[1,2-a]pyridin-6-yl)-6-(piperidin-4-yl)thieno[2,3-c]pyridin-7(6H)-one], the IC50 in test [1], in test [2], in test [3], in test [4] and in test [5] was 100 to 1000 nM in each case. In addition, the AC50 in test [1] and in test [4] was 100 to 1000 nM each time.

Consider `Cc1cc(-c2cc3ccn(C4CCNCC4)c(=O)c3s2)cc2cn(C)nc12` [Compound 805, 2-(2,7-dimethyl-2H-indazol-5-yl)-6-(piperidin-4-yl)thieno[2,3-c]pyridin-7(6H)-one], for which the IC50 in test [1] was 100 to 1000 nM; in test [2] it was 1000 to 10000 nM; in test [3] it was 100 to 1000 nM; in test [4] it was 100 to 1000 nM; in test [5] it was under 100 nM. Besides, the AC50 in test [1] and in test [4] was 100 to 1000 nM each time.

`Cc1cn2nc(-c3cc4ccn(C5CCNCC5)c(=O)c4s3)cc(C)c2n1` [Compound 806, 2-(2,8-dimethylimidazo[1,2-b]pyridazin-6-yl)-6-(piperidin-4-yl)thieno[2,3-c]pyridin-7(6H)-one]: the IC50 in test [1], in test [2], in test [3], in test [4] and in test [5] was 100 to 1000 nM each time. Besides, the AC50 in test [1] and in test [4] was 100 to 1000 nM in each case.

Take `Cc1cn2cc(-c3cc4ccn(C5CCN(C)CC5)c(=O)c4s3)cc(F)c2n1` [Compound 808, 2-(8-fluoro-2-methylimidazo[1,2-a]pyridin-6-yl)-6-(1-methylpiperidin-4-yl)thieno[2,3-c]pyridin-7(6H)-one]: the IC50 in test [1] was 100 to 1000 nM; in test [2] it was 1000 to 10000 nM; in test [3], 100 to 1000 nM; in test [4], 100 to 1000 nM; in test [5], under 100 nM. Further, the AC50 lay in the range of 1000 to 10000 nM in test [1] and 100 to 1000 nM in test [4].

Regarding `Cc1cn2nc(-c3cc4ccn(C5CCN(C)CC5)c(=O)c4s3)cc(C)c2n1` [Compound 809], the IC50 is 1000 to 10000 nM in test [1]; 1000 to 10000 nM in test [2]; 1000 to 10000 nM in test [3]; 1000 to 10000 nM in test [4]; 100 to 1000 nM in test [5]. Also, the AC50 in test [1] and in test [4] was 1000 to 10000 nM throughout.

As to `Cc1cn2nc(-c3nc4cnn(C5CCNCC5)c(=O)c4s3)cc(C)c2n1` [Compound 810], the IC50 in test [1], in test [2], in test [3], in test [4] and in test [5] was 100 to 1000 nM throughout. Further, the AC50 in test [1] and in test [4] was 100 to 1000 nM throughout.

Take `Cc1nc(-c2nc3cnn(C4CCNCC4)c(=O)c3s2)cc2cn(C)nc12` [Compound 811]: the IC50 in test [1] was 1000 to 10000 nM; in test [2], over 10000 nM; in test [3] it was 1000 to 10000 nM; in test [4], 1000 to 10000 nM; in test [5], 100 to 1000 nM. Also, the AC50 in test [1] and in test [4] was 1000 to 10000 nM throughout.

As to `Cc1cn2cc(-c3nc4cnn(C5CCNCC5)c(=O)c4s3)nc(C)c2n1` [Compound 812, 2-(2,8-dimethylimidazo[1,2-a]pyrazin-6-yl)-6-(piperidin-4-yl)thiazolo[4,5-d]pyridazin-7(6H)-one], the IC50 in test [1], in test [2], in test [3], in test [4] and in test [5] was over 10000 nM in each case. For the same compound, the AC50 in test [1] and in test [4] was over 10000 nM each time.
